Results from patent publication US11083696B2, “Dispersion anaesthetic device” (UNIVERSITY COLLEGE CARDIFF CONSULTANTS LIMITED, priority 2011, dated 2021).

How the values were obtained:
[1] = Gelation of liquid anaesthetics by gelators (heat-cool cycles, inversion); assay type: physicochemical
Procedure: […] The solubility of the gelator at room temperature was observed by visual inspection, and samples subjected to a series of heat-cool cycles (hot ˜60° C., cold ˜5° C.) until solubility of the gelator was complete (or ceased to improve) and a clear gel was formed on cooling. A final heating cycle was carried out and the samples allowed to cool slowly to room temperature (cooling rate uncontrolled). […] Further inspection was carried out after 24 hours, and no difference in results was observed. On storage, sealed samples remain gelled for at least 12 months.
A series of gelators were investigated with chain lengths […] corresponding to gelators G3-G8.

[2] = Release into carrier gas, testing chamber 1 (60 ml glass jar, anaesthetic monitor); assay type: physicochemical; settings: for Sevo % @ 30 s / time to 0% Sevo/s: HPFP only, No N2 flow
Procedure: Specifically, a 60 ml glass jar fitted with septum, N2 inlet and 1 ml syringe (open to air). Typically tests used a 3 ml sample or equivalent with respect to anaesthetic content. Headspace concentrations were sampled from gas flow out (no recirculation) and measured with a standard anaesthetic monitor using a balloon to provide a nitrogen atmosphere or with or 2 L min^−1 N2 passed over or bubbled through sample;
The formulations described in Tables 1-4 were tested using testing chamber 1, the experimental set-up for which is described in FIG. 1a, by addition of an appropriate quantity of formulation to a 60 ml glass jar fitted with septum, N2 inlet and (needle free) 1 ml syringe (open to air) via a plastic tube from within which the outflow gas was continuously sampled and monitored for anaesthetic concentration. Typically a 3 ml sample was used, or an equivalent amount with respect to anaesthetic content. A balloon was used to provide a nitrogen atmosphere with no flow-through, or a continuous flow of nitrogen as a carrier gas was passed over or bubbled through the sample at a controlled flow-rate. Headspace fluorocarbon concentrations were sampled from gas outflow (no recirculation) and measured using a standard anaesthetic monitor (Capnomac Ultima, Datex Instrumentarium Inc., Heslinki, Finland), monitoring on either sevoflurane or isoflurane settings, depending on the anaesthetic in the formulation.

[3] = test system: reaction to a standard surgical stimulus (skin incision); settings: average adult male at age 40 years; 1 atmosphere; cited from earlier work
[4] = 1 wt % gelator after 2x heat-cool cycling
[5] = 1st value column (amount equivalent to J1)
[6] = 3rd value column (amount equivalent to J5)

With `CC(C)OC(=O)[C@@H](O)[C@H](O)CCCCCCCC[C@@H](O)[C@H](O)C(=O)OC(C)C` (racemic) [G4] the “gelation of sevoflurane at lower gelator concentration” value ([1]; 0.1 wt % gelator) was “without success”, the “Gel state of anaesthetic: Desfluorane” value [1, 4] was “Yes” and the “Gel state of anaesthetic: Isoflurane” value [1, 4] was “No^†”. For the same compound, the “Gel state of anaesthetic: Sevoflurane” value [1, 4] was “Good gels and Yes”, the “gel state of isoflurane” value ([1]; 1.5 wt % gelator) was “partially gelled” and the “gel state of isoflurane” value ([1]; 2, 3, and 5 wt % gelator) was “gels and stable isoflurane gels were obtained”.
For `FC(C(F)C(F)(F)C(F)(F)F)C(F)(F)F` (stereo not shown) [HPFP, 2H, 3H-perfluoropentane], the “Time to 0% sevoflurane/s” value ([2]; 2 l min−1 N2 Over sample, 3 ml HPFP) was 220 s, the “sevoflurane % @ 30 s” value ([2]; 2 l min−1 N2 Over sample, 3 ml HPFP, monitored as sevoflurane) was 1.6% and the “Time to 0% sevoflurane/s” value ([2]; 2 l min−1 N2 through sample, 3 ml HPFP) was <220 s. For the same compound, the “Sevo % @ 30 s” value [2, 5] was 1.9%, the “time to 0% Sevo/s” value [2, 5] was 135 s and the “Sevo % @ 30 s” value ([2]; 2nd value column (equivalent formulation unclear)) was 2.0%. For the same compound, the “time to 0% Sevo/s” value ([2]; 2nd value column) was 140 s, the “Sevo % @ 30 s” value [2, 6] was 2.8% and the “time to 0% Sevo/s” value [2, 6] was 335 s. The “Sevo % @ 30 s” value ([2]; 4th value column (equivalent formulation unclear)) was 2.9% and the “time to 0% Sevo/s” value ([2]; 4th value column) was 900 s.
In the case of `FC(F)OC(F)C(F)(F)F` (stereo not shown) [desflurane], the “MAC value of 1 (release level)” value [3] is listed as 6 volume %.
For `FC(F)OC(F)(F)C(F)Cl` (stereo not shown) [enflurane], the “MAC value of 1 (release level)” value [3] is listed as 1.6 volume %.
For `FC(F)(F)C(Cl)Br` (stereo not shown) [halothane], the “MAC value of 1 (release level)” value [3] is listed as 0.76 volume %.
In the case of `FC(F)OC(Cl)C(F)(F)F` (stereo not shown) [isoflurane], the “MAC value of 1 (release level)” value [3] is given as 1.2 volume %.
With `FCOC(C(F)(F)F)C(F)(F)F` [sevoflurane] the “time of drop to zero anaesthetic concentration” value ([2]; 3 ml sevoflurane, 2 L min^−1) was 15 to 16 min, the “plateau sevoflurane concentration in carrier gas” value ([2]; 3 ml sevoflurane, 2 L min^−1 carrier gas) was ~13% and the “anaesthetic concentration in the carrier gas outflow stream” value ([2]; first 10 minutes, 3 ml sevoflurane, 2 L min^−1 through headspace) was 13-15%. The “MAC value of 1 (release level)” value [3] was 2 volume %.
